Like-named read-outs stand apart in the source and are kept apart here. Positions of bridges follow the written chain, without caps; N, C: chain ends. Residues, ends and D or L forms follow the SMILES beside them.

What all share (assay): cell-based
The target of assay [1] is hNav1.7 (Homo sapiens, UniProt Q15858). It counts as cell-based.
Assay [2] has as its target hNav1.3 (Homo sapiens, UniProt Q9NY46). The settings on record: for IC50: IonWorks Quattro, read-out: IWQ Use Nav1.3.
Assay [3] has as its target hNav1.5 (Homo sapiens, UniProt Q14524). As to conditions: IWQ Use Nav1.5.

Sequence of hNav1.3 (Q9NY46 whole entry, looked up): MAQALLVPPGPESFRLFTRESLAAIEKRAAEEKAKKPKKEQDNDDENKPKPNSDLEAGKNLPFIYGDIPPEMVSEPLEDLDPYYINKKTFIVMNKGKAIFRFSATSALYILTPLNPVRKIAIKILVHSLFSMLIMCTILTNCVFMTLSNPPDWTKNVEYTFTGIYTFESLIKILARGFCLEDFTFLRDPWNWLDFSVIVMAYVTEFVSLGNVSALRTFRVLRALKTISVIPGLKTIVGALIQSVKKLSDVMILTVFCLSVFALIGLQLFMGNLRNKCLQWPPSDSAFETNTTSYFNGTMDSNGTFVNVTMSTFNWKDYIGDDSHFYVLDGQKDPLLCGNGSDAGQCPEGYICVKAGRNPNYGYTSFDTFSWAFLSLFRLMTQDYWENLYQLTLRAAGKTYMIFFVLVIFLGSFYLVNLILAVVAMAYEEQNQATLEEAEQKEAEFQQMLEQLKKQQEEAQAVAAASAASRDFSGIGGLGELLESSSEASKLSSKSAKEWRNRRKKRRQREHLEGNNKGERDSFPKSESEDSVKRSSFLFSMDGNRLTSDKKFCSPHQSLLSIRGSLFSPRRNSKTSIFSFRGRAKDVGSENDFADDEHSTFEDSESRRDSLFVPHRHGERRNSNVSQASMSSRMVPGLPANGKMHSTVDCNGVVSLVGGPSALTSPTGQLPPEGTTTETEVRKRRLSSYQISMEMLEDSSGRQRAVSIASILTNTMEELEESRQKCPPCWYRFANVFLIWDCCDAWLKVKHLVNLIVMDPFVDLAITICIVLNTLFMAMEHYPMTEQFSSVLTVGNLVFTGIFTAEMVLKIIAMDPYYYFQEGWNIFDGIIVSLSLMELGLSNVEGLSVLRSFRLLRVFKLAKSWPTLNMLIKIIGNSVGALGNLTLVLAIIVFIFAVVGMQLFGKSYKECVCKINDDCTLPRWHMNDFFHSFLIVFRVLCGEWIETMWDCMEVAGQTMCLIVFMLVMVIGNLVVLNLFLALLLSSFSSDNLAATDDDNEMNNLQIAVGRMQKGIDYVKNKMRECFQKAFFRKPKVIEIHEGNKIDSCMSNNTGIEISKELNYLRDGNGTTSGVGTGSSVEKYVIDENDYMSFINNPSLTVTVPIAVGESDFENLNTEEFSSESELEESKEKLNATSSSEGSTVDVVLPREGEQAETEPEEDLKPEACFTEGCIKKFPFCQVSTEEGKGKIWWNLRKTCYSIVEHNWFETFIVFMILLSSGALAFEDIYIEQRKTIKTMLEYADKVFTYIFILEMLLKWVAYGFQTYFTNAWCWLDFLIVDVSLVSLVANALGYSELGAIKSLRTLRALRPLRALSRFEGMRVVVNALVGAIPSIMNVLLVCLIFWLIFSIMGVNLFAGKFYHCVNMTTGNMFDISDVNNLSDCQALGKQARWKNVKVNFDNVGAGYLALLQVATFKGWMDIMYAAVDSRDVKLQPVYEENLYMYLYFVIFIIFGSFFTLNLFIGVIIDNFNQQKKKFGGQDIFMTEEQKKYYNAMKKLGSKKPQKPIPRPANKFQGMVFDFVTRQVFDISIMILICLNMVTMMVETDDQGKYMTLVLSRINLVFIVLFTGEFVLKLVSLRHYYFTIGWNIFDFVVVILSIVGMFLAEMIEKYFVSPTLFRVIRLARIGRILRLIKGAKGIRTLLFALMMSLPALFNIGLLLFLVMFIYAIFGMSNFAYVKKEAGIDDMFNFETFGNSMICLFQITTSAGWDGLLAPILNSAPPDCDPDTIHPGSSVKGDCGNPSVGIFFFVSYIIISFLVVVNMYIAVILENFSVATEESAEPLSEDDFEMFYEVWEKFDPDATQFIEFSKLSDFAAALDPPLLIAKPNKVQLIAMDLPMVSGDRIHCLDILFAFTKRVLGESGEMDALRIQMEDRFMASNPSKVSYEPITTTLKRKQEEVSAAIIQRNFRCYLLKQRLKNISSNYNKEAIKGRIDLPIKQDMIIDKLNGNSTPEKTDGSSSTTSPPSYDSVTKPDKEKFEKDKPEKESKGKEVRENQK
Sequence of hNav1.7 (Q15858 whole entry, looked up): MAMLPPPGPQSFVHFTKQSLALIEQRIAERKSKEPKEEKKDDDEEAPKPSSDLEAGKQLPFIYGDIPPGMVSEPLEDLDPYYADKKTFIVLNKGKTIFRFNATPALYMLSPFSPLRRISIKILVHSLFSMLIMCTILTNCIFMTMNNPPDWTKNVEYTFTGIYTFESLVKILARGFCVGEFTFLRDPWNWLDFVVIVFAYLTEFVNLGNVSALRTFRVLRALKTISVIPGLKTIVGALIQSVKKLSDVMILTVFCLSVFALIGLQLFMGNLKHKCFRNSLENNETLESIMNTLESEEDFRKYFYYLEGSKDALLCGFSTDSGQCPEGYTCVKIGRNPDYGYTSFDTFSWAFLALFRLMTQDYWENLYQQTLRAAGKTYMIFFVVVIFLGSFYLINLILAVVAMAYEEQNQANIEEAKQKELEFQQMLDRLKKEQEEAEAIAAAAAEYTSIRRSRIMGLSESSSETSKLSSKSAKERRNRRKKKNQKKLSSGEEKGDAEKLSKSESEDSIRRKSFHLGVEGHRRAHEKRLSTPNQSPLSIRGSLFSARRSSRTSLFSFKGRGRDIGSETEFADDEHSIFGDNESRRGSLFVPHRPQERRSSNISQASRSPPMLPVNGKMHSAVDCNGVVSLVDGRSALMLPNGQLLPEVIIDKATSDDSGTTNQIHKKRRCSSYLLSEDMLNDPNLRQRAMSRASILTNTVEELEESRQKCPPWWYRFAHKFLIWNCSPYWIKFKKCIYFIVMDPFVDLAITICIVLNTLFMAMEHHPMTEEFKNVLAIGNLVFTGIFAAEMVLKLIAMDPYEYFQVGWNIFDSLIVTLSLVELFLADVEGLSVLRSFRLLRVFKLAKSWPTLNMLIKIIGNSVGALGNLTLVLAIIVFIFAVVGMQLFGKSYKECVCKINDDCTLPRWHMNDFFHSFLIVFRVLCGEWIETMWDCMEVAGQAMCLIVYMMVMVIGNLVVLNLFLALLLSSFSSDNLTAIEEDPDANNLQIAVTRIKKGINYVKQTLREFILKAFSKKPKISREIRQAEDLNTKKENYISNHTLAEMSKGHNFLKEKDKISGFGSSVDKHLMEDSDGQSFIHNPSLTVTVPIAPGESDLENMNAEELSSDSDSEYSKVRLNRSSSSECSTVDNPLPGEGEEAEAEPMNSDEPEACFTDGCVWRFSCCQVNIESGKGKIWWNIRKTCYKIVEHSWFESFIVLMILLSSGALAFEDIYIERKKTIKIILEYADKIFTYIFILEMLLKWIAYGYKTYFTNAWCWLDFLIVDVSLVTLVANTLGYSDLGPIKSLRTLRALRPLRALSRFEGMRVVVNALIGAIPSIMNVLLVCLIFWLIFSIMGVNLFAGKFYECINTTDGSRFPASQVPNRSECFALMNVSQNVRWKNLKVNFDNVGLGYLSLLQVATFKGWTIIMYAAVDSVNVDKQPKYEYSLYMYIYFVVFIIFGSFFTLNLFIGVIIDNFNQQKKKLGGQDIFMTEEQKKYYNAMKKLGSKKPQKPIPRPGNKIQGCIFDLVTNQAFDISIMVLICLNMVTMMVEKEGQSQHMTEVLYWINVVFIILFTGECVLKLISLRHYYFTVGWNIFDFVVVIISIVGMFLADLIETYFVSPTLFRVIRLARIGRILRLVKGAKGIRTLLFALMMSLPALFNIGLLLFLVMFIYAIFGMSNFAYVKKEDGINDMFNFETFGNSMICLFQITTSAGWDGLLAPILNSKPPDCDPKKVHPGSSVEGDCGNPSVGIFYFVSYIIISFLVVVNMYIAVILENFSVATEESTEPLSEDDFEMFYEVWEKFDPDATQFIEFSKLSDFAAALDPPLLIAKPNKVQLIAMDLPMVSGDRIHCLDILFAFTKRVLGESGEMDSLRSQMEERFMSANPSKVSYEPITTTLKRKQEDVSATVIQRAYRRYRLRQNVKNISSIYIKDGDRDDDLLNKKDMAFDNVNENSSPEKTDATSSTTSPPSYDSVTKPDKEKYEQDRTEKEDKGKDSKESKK

Consider `CC[C@H](C)[C@@H]1NC(=O)[C@@H]2CSSC[C@@H]3NC(=O)[C@H](C(C)C)NC(=O)[C@H](CC(C)C)NC(=O)[C@H](CC(N)=O)NC(=O)[C@@H]4CCCN4C(=O)[C@H](CCCNC(=N)N)NC(=O)[C@H](CSSC[C@H](NC(=O)[C@@H](N)CC(=O)O)C(=O)N[C@@H](CC(C)C)C(=O)NCC(=O)N[C@@H](Cc4ccc(F)cc4)C(=O)N[C@@H](CCSC)C(=O)N[C@@H](CCCNC(=N)N)C(=O)N[C@@H](CCCCN)C(=O)N2)NC(=O)[C@H](CSSC[C@@H](C(=O)N[C@@H](CCCCN)C(=O)N[C@@H](Cc2ccc(O)cc2)C(=O)N[C@H](C(=O)N[C@@H](Cc2ccccc2)C(N)=O)C(C)C)NC(=O)[C@H](Cc2c[nH]c4ccccc24)NC(=O)[C@H](CCCCN)NC(=O)[C@H](Cc2c[nH]cn2)NC(=O)[C@H]([C@@H](C)O)NC(=O)[C@H](CCCNC(=N)N)NC(=O)[C@H](CO)NC3=O)NC(=O)[C@H](CCCCN)NC(=O)[C@H](CC(=O)O)NC(=O)[C@H](CC(N)=O)NC(=O)[C@H](CC(=O)O)NC(=O)[C@@H]2CCCN2C1=O` [compound 655], for which the Nav1.4/Nav1.7 in assay [1] (ratio of IWQ Use values, Nav1.4 over Nav1.7) is reported as 7.1. The Nav1.4/Nav1.3 in assay [2] (ratio of IWQ Use values, Nav1.4 over Nav1.3) turned out to be 26.6. Moreover, the Nav1.7/Nav1.3 in assay [2] (ratio of IWQ Use values, Nav1.7 over Nav1.3) came to 3.8.

In turn, `CC[C@H](C)[C@@H]1NC(=O)[C@@H]2CSSC[C@@H]3NC(=O)[C@H](C(C)C)NC(=O)[C@H](CC(C)C)NC(=O)[C@H](CC(N)=O)NC(=O)[C@@H]4CCCN4C(=O)[C@H](CCCNC(=N)N)NC(=O)[C@H](CSSC[C@H](NC(=O)[C@@H](N)CC(=O)O)C(=O)N[C@@H](CC(C)C)C(=O)NCC(=O)N[C@H](Cc4ccccc4)C(=O)N[C@@H](CCSC)C(=O)N[C@@H](CCCNC(=N)N)C(=O)N[C@@H](CCCCN)C(=O)N2)NC(=O)[C@H](CSSC[C@@H](C(=O)N[C@@H](CCCCN)C(=O)N[C@@H](Cc2ccc(O)cc2)C(=O)N[C@H](C(=O)N[C@@H](Cc2ccccc2)C(N)=O)C(C)C)NC(=O)[C@H](Cc2c[nH]c4ccccc24)NC(=O)[C@H](CCCCN)NC(=O)[C@H](Cc2c[nH]cn2)NC(=O)[C@H]([C@@H](C)O)NC(=O)[C@H](CCCNC(=N)N)NC(=O)[C@H](CO)NC3=O)NC(=O)[C@H](CCCCN)NC(=O)[C@H](CC(=O)O)NC(=O)[C@H](CC(N)=O)NC(=O)[C@H](CC(=O)O)NC(=O)[C@@H]2CCCN2C1=O` [SEQ ID NO: 273] yielded an IC50 in assay [3] greater than 5 µM.

As for `CC[C@H](C)[C@@H]1NC(=O)[C@@H]2CSSC[C@@H]3NC(=O)[C@H](C(C)C)NC(=O)[C@H](CC(C)C)NC(=O)[C@H](CC(N)=O)NC(=O)[C@@H]4CCCN4C(=O)[C@H](CCCNC(=N)N)NC(=O)[C@H](CSSC[C@H](NC(=O)[C@@H](N)CC(=O)O)C(=O)N[C@@H](CC(C)C)C(=O)NCC(=O)N[C@@H](Cc4ccccc4)C(=O)N[C@@H](CCSC)C(=O)N[C@@H](CCCNC(=N)N)C(=O)N[C@@H](CCCCN)C(=O)N2)NC(=O)[C@H](CSSC[C@@H](C(=O)N[C@@H](CCCCN)C(=O)N[C@@H](Cc2ccc(O)cc2)C(=O)N[C@H](C(=O)N[C@@H](Cc2ccccc2)C(N)=O)C(C)C)NC(=O)[C@H](Cc2c[nH]c4ccccc24)NC(=O)[C@H](CCC(N)=O)NC(=O)[C@H](Cc2cnc[nH]2)NC(=O)[C@H]([C@@H](C)O)NC(=O)[C@H](CCCNC(=N)N)NC(=O)[C@H](CO)NC3=O)NC(=O)[C@H](CCCCN)NC(=O)[C@H](CC(=O)O)NC(=O)[C@H](CC(N)=O)NC(=O)[C@H](CC(=O)O)NC(=O)[C@@H]2CCCN2C1=O` [SEQ ID NO: 763, [Gln28]GpTx-1] (H-DCLGFMRKCIPDNDKCCRPNLVCSRTHQWCKYVF-NH2; disulfide 2-17, 9-23, 16-30), the IC50 was determined as 0.19 µM in assay [1] and 0.27 µM in assay [2] (use-dependent block, hNav1.3).

Take `CC[C@H](C)[C@@H]1NC(=O)[C@@H]2CSSC[C@@H]3NC(=O)[C@H](C(C)C)NC(=O)[C@H](CC(C)C)NC(=O)[C@H](CC(N)=O)NC(=O)[C@@H]4CCCN4C(=O)[C@H](CCCNC(=N)N)NC(=O)[C@H](CSSC[C@H](NC(=O)[C@@H](N)CC(=O)O)C(=O)N[C@@H](CC(C)C)C(=O)NCC(=O)NC(C)(C)C(=O)N[C@@H](CC(C)C)C(=O)N[C@@H](CCCNC(=N)N)C(=O)N[C@@H](CCCCN)C(=O)N2)NC(=O)[C@H](CSSC[C@@H](C(=O)N[C@@H](CCCCN)C(=O)N[C@@H](Cc2ccc(O)cc2)C(=O)N[C@H](C(=O)N[C@@H](Cc2ccccc2)C(N)=O)C(C)C)NC(=O)[C@H](Cc2c[nH]c4ccccc24)NC(=O)[C@H](CCCCN)NC(=O)[C@H](Cc2c[nH]cn2)NC(=O)[C@H]([C@@H](C)O)NC(=O)[C@H](CCCNC(=N)N)NC(=O)[C@H](CO)NC3=O)NC(=O)[C@H](CCCCN)NC(=O)[C@H](CC(=O)O)NC(=O)[C@H](CC(N)=O)NC(=O)[C@H](CC(=O)O)NC(=O)[C@@H]2CCCN2C1=O` [compound 635]: the IC50 in assay [1] (IonWorks Quattro, use-dependent protocol, hNav1.7, read-out: IWQ Use Nav1.7) turned out to be 0.23 µM; in assay [2] (use-dependent protocol, hNav1.3), 0.38 µM.

With `CC[C@H](C)[C@@H]1NC(=O)[C@@H]2CSSC[C@@H]3NC(=O)[C@H](C(C)C)NC(=O)[C@H](CC(C)C)NC(=O)[C@H](CC(N)=O)NC(=O)[C@@H]4CCCN4C(=O)[C@H](CCCNC(=N)N)NC(=O)[C@H](CSSC[C@H](NC(=O)[C@@H](N)CC(=O)O)C(=O)N[C@@H](CC(C)C)C(=O)NCC(=O)N[C@@H](Cc4ccccc4)C(=O)N[C@@H](CCSC)C(=O)N[C@@H](CCCNC(=N)N)C(=O)N[C@@H](CCCCN)C(=O)N2)NC(=O)[C@H](CSSC[C@@H](C(=O)N[C@@H](CCCCN)C(=O)N[C@@H](Cc2ccc(O)cc2)C(=O)N[C@H](C(=O)N[C@@H](Cc2ccccc2)C(N)=O)C(C)C)NC(=O)[C@H](Cc2c[nH]c4ccccc24)NC(=O)[C@H](CCCCN)NC(=O)[C@H](Cc2cnc[nH]2)NC(=O)[C@H](Cc2cnc[nH]2)NC(=O)[C@H](CCCNC(=N)N)NC(=O)[C@H](CO)NC3=O)NC(=O)[C@H](CCCCN)NC(=O)[C@H](CC(=O)O)NC(=O)[C@H](CC(N)=O)NC(=O)[C@H](CC(=O)O)NC(=O)[C@@H]2CCCN2C1=O` [compound 337] (H-DCLGFMRKCIPDNDKCCRPNLVCSRHHKWCKYVF-NH2; disulfide 2-17, 9-23, 16-30), the IC50 in assay [1] (Table 22, IonWorks Quattro, use, […], read-out: IWQ Use Nav1.7) was 0.1 µM; in assay [2] (Table 22, use, […]), 0.08 µM.

Regarding `CC[C@H](C)[C@@H]1NC(=O)[C@@H]2CSSC[C@@H]3NC(=O)[C@H](C(C)C)NC(=O)[C@H](CC(C)C)NC(=O)[C@H](CC(N)=O)NC(=O)[C@@H]4CCCN4C(=O)[C@H](CCCNC(=N)N)NC(=O)[C@H](CSSC[C@H](NC(=O)[C@@H](N)CC(=O)O)C(=O)N[C@@H](CC(C)C)C(=O)NCC(=O)N[C@@H](Cc4ccccc4)C(=O)N[C@@H](CCSC)C(=O)N[C@@H](CCCNC(=N)N)C(=O)N[C@@H](CCCCN)C(=O)N2)NC(=O)[C@H](CSSC[C@@H](C(=O)N[C@@H](CCCCN)C(=O)N[C@@H](Cc2ccc(O)cc2)C(=O)N[C@H](C(=O)N[C@@H](Cc2ccccc2)C(N)=O)C(C)C)NC(=O)[C@H](Cc2c[nH]c4ccccc24)NC(=O)[C@H](CCCCN)NC(=O)[C@H](Cc2c[nH]c4ccccc24)NC(=O)[C@H]([C@@H](C)O)NC(=O)[C@H](CCCNC(=N)N)NC(=O)[C@H](CO)NC3=O)NC(=O)[C@H](CCCCN)NC(=O)[C@H](CC(=O)O)NC(=O)[C@H](CC(N)=O)NC(=O)[C@H](CC(=O)O)NC(=O)[C@@H]2CCCN2C1=O` [compound 84] (H-DCLGFMRKCIPDNDKCCRPNLVCSRTWKWCKYVF-NH2; disulfide 2-17, 9-23, 16-30), the IC50 in assay [1] (Table 23, IonWorks Quattro, use, […], read-out: IWQ Use Nav1.7) was found to be 0.32 µM; in assay [2] (Table 23, use, […]), 0.59 µM.

In the case of `CC[C@H](C)[C@@H]1NC(=O)[C@@H]2CSSC[C@@H]3NC(=O)[C@H](C(C)C)NC(=O)[C@H](CC(C)C)NC(=O)[C@H](CC(N)=O)NC(=O)[C@@H]4CCCN4C(=O)[C@H](CCCNC(=N)N)NC(=O)[C@H](CSSC[C@H](NC(=O)[C@@H](N)CC(=O)O)C(=O)N[C@@H](CC(C)C)C(=O)NCC(=O)N[C@@H](Cc4ccccc4)C(=O)N[C@@H](CCSC)C(=O)N[C@@H](CCCNC(=N)N)C(=O)N[C@@H](CCCCN)C(=O)N2)NC(=O)[C@H](CSSC[C@@H](C(=O)N[C@@H](CCCCN)C(=O)N[C@@H](CCC(=O)O)C(=O)N[C@H](C(=O)N[C@@H](Cc2ccccc2)C(N)=O)C(C)C)NC(=O)[C@H](Cc2c[nH]c4ccccc24)NC(=O)[C@H](CCCCN)NC(=O)[C@H](Cc2cnc[nH]2)NC(=O)[C@H]([C@@H](C)O)NC(=O)[C@H](CCCNC(=N)N)NC(=O)[C@H](CO)NC3=O)NC(=O)[C@H](CCCCN)NC(=O)[C@H](CC(=O)O)NC(=O)[C@H](CC(N)=O)NC(=O)[C@H](CC(=O)O)NC(=O)[C@@H]2CCCN2C1=O` [compound 32] (H-DCLGFMRKCIPDNDKCCRPNLVCSRTHKWCKEVF-NH2; disulfide 2-17, 9-23, 16-30), the IC50 in assay [1] (Table 25, IonWorks Quattro, use, […], read-out: IWQ Use Nav1.7) was 13.9 µM; in assay [2] (Table 25, use, […]) it was 9.14 µM.
